# Literature values, collected in patent publication US20240366505A1, “Liquid Resin Extended-Release Oral Naltrexone Formulation for Treating Autism-Related Disorders” (AARDVARK THERAPEUTICS, INC., priority 2022, published 2024).
# Where two headings read alike, the source gives them in different places.
# Columns and labels:
# [1] = 6-β-naltrexol; 50 mg REVIA tablets once daily for 7 days
# [2] = single 50 mg REVIA tablet
# children with ASD = conditions: 1.0 mg/kg single daily immediate release oral dose, 12 or 14 days
# ASD children = conditions: 20 mg immediate release per day for 4 weeks
# [3] = 50 mg once daily
# autistic behavior = conditions: 0.5, 1.0 and 2.0 mg/kg immediate release oral
# [4] = in vivo
SMILES,AUC(0-τ) [1] [ng·h/mL],Cmax [1] [ng/mL],"AUC(0-inf) ([2]; 6-β-naltrexol, mean (CV%)) [ng·h/mL]","Cmax ([2]; 6-β-naltrexol, mean (CV%)) [ng/mL]","Tmax ([2]; 6-β-naltrexol, mean (CV%)) [h]",accumulation (after 100 mg daily doses),"excretion of parent drug and metabolites by the kidney (human, in vivo)","dose absorbed from the gastrointestinal tract (human, in vivo, po)",urinary excretion of unchanged naltrexone (immediate release formulations),dose proportionality of AUC and Cmax (over the range of 50-200 mg),"changes in parent measures (CGI, Conners IHF, SE-Restlessness) and Teacher CGI (children with ASD)",CGI ratings of the teachers (ASD children),behavior ratings completed by the teachers (Aberrant Behavior Checklist (ABC) scores) (ASD children),"Tmax ([2]; naltrexone, Mean (CV %)) [h]",rate of early discontinuation of treatment versus placebo [3],"adverse effects versus placebo ([3]; weeks 1, 5 and 8)",effect on autistic behavior and gaze aversion (autistic behavior),"incidence of difficulty sleeping, anxiety, nervousness, abdominal pain/cramps, nausea and/or vomiting, low energy, joint/muscle pain, headache [4]","incidence of loss of appetite, diarrhea, constipation, thirstiness, increased energy, feeling down, irritability, dizziness, skin rash, delayed ejaculation, erectile dysfunction, chills [4]"
Oc1ccc2c3c1O[C@H]1[C@H](O)CC[C@@]4(O)[C@@H](C2)N(CC2CC2)CC[C@]314 [6-β-naltrexol],788 ± 134.8,96.1 ± 21.05,717.3,85.6,1.05,,,,,,,,,,,,,,
"O=C1CC[C@@]2(O)[C@H]3Cc4ccc(O)c5c4[C@@]2(CCN3CC2CC2)[C@H]1O5 [naltrexone, 17-(cyclopropylmethyl)-4,5α-epoxy-3,14-dihydroxy-morphinan-6-one]",,,,,,do not accumulate,53-79 % of the dose,approximately 96%,less than 2 % of an oral dose,dose-proportional,achieved statistical significance,Significant difference,significant changes,1.07,greater rate,significantly more adverse effects,reverse autistic behavior and gaze aversion,Greater than 10%,Less than 10%
